Results on 23 compounds are retold here after patent US20100075343A1, “NOVEL PEPTIDES” (priority 2007, published 2010).

Experiment [1] concerns antiserum against ESPGPERVW peptide of human VGF. It counts as binding. The conditions noted are these: for inhibition of binding of the antiserum to labeled peptide: 1, 10, and 100 pmol of the peptides. As for the experimental part:
Namely, to 100 μL of antiserum diluted 9×10^5 folds with RIA buffer, 100 μL of RIA buffer containing a fixed amount of [^125I]-labeled Peptide 1 (approximately 20000 cpm, 500-550 Bq, approximately 9 fmol in terms of peptide amount) and 100 μL of RIA buffer solutions each containing a sequentially diluted VGF-derived peptide were added, this was incubated at 4° C. for 40 hours, and the labeled Peptide 1 and VGF-derived peptide were competitively bound to the antibody in the antiserum. As controls, reactions that use RIA buffer instead of the antiserum to measure non-specific binding, and reactions that use RIA buffer instead of VGF-derived peptide solutions to measure the maximum binding level were carried out. Reactions for non-specific binding were performed in quadruplicates, and the other reactions were performed in duplicates, and for each of the reactants, the immune complex was precipitated as in the above-mentioned antibody titer measurements, and its radioactivity (cpm) was measured. The average radioactivity of non-specific binding reaction is defined as non-specific binding level N, the radioactivity value for each VGF-derived peptide addition reaction is defined as Y, and the radioactivity value of maximum binding reaction is defined as Z. The percentage ratio (B/B0) of antiserum specific binding level (B) with peptide addition to the maximum binding level (B0), was determined using the following formula.
B/B0(%)={(Y−N)/(Z−N)}×100
Accordingly, the amount of peptide that achieves 50% B/B0, more specifically, the amount of peptide that yields 50% inhibition of the maximum binding level, was used as an indicator of the peptide binding activity to the antiserum.

The test system of experiment [2] is hypothalamic cells of the apoaequorin-expressing mice. Briefly: Intracellular calcium ion increase (aequorin luminescence), hypothalamus. In kind it is cell-based, mouse. The conditions noted are these: for increase of intracellular calcium concentration in hypothalamic cells (RLU per second): added at 25 seconds; for luminescence (intracellular calcium ion increase) in hypothalamus: peptide at final concentrations of 1 μmol/L and 5 μmol/L. On the procedure:
(§1) A hypothalamus, pituitary gland, kidney, heart, blood vessel, or a portion of brain tissue is collected from transgenic mice systemically expressing apoaequorin (WO02/010371) produced by introducing an apoaequorin gene expression vector into fertilized eggs. The obtained hypothalamus, pituitary gland, kidney, heart, blood vessel, or brain tissue is cut finely into pieces, suspended in a medium containing coelenterazine, and then incubated to incorporate coelenterazine into the cells to form aequorin (a complex of apoaequorin and coelenterazine). Since aequorin luminesces upon binding to intracellular calcium ions, the relative luminescence level in cells before and after addition of a medium containing the peptide or a pharmaceutically acceptable salt thereof is measured in a luminometer every second over time and is used as an indicator of intracellular calcium ion concentration. Increase in the relative luminescence level due to addition of the peptide or pharmaceutically acceptable salt thereof confirms that the peptide or pharmaceutically acceptable salt thereof has the activity to increase intracellular calcium ion concentration.
(§2) Whether Peptides 1 to 8 synthesized in Example 2 have the activity of increasing intracellular calcium ion concentration was investigated using the organs of transgenic mice introduced with the apoaequorin gene and systemically expressing apoaequorin (hereinafter referred to as apoaequorin-expressing mice). In apoaequorin-expressing mouse cells, light is emitted when apoaequorin binds to a calcium ion in the presence of the luminescent substrate coelenterazine and thus the intracellular calcium ion concentration can be monitored. Patent Document (WO02/010371) discloses the method for producing apoaequorin-expressing mice, method for evaluating biologically active substances that use biological samples derived from the mice, and experimental results of evaluating biologically active peptides using the mouse organs as shown below. […] Therefore, apoaequorin-expressing mice can be used in the evaluation of the physiological activities of novel peptides.
(§3) Apoaequorin-expressing mice were produced according to the method disclosed in Reference Example 4 of Patent Document (WO02/010371). The apoaequorin-expressing mice were sacrificed, individual organs including thymus, hypothalamus, spleen, bone, aorta, heart, kidney, adrenal gland, pancreas, pituitary gland, uterus, medulla oblongata, and spinal cord were removed; and each of the organs was cut into small cubes of approximately 1 to 2 mm^3. Next, in 5-mL tubes (Rohren-Tubes; manufactured by Sarstedt, No. 55.476), three portions of each of the prepared organs were added to 50 μL of a 10 μmol/L solution of coelenterazine (manufactured by Molecular Probes) dissolved in RPMI 1640 medium, and these were cultured at 37° C. for three hours. After culturing, RPMI 1640 medium was added, and then Peptides 1 to 5 dissolved in RPMI 1640 medium were added 25 seconds after the addition of RPMI 1640 until each peptide had final concentrations of 1 μmol/L and of 5 μmol/L, and the relative luminescence levels were measured every second immediately after the addition of RPMI 1640 medium by using a luminometer (AutoLumat LB953, manufactured by Berthold).
On the technique in general: Calcium flux is commonly read through the fluorescence of an indicator in the cells.

Experiment [3] relates to medulla oblongata of apoaequorin-expressing mice. Briefly: Intracellular calcium ion increase (aequorin luminescence), medulla oblongata. It counts as cell-based, mouse. The conditions noted are these: peptide at final concentrations of 1 μmol/L and 5 μmol/L. As for the experimental part:
as §1, §2, §3

Experiment [4] relates to cardiac cells of the apoaequorin-expressing mice. The experiment can be described thus: Intracellular calcium ion increase (aequorin luminescence), heart. In kind it is cell-based, mouse. As for the experimental part: as §1, §2, §3
The test system of experiment [5] is pituitary cells of the apoaequorin-expressing mice. The experiment can be described thus: Intracellular calcium ion increase (aequorin luminescence), pituitary gland. In kind it is cell-based, mouse. The conditions noted are these: for increase of intracellular calcium concentration in pituitary cells (RLU per second): added at 25 seconds; for luminescence (intracellular calcium ion increase) in pituitary gland: peptide at final concentrations of 1 μmol/L and 5 μmol/L. As for the experimental part:
as §1, §2, §3

Experiment [6] has as its system thymus of apoaequorin-expressing mice. The experiment can be described thus: Intracellular calcium ion increase (aequorin luminescence), thymus. It counts as cell-based, mouse. The conditions noted are these: peptide at final concentrations of 1 μmol/L and 5 μmol/L. On the procedure:
as §1, §2
Apoaequorin-expressing mice were produced according to the method disclosed in Reference Example 4 of Patent Document (WO02/010371). […] After culturing, RPMI 1640 medium was added, and then Peptides 1 to 5 dissolved in RPMI 1640 medium were added 25 seconds after the addition of RPMI 1640 until each peptide had final concentrations of 1 μmol/L and of 5 μmol/L, and the relative luminescence levels were measured every second immediately after the addition of RPMI 1640 medium by using a luminometer (AutoLumat LB953, manufactured by Berthold).

The test system of experiment [7] is kidney cells of the apoaequorin-expressing mice. The experiment can be described thus: Intracellular calcium ion increase (aequorin luminescence), kidney. It counts as cell-based, mouse. As for the experimental part: as §1, §2, §3
Experiment [8] deals with male rats. The conditions noted are these: direct administration to the PVN of male rats; Non-patent Document 7; cited from earlier work.
[9] abbreviates: 1 μmol/L peptide, added at 25 seconds.
Where [10] appears, read: peptide at final concentrations of 1 μmol/L and 5 μmol/L.

Ends that are not written are not given here.

Take `CC[C@H](C)[C@@H]1NC(=O)[C@H](CCCNC(=N)N)NC(=O)[C@H](CC(=O)O)NC(=O)[C@H](CCSC)NC(=O)[C@H](CCCNC(=N)N)NC(=O)CNC(=O)CNC(=O)[C@H](Cc2ccccc2)NC(=O)[C@@H](NC(=O)[C@H](CO)NC(=O)[C@H](CO)NC(=O)[C@H](CCCNC(=N)N)NC(=O)[C@H](CCCNC(=N)N)NC(=O)[C@H](CC(C)C)NC(=O)[C@@H](N)CO)CSSC[C@@H](C(=O)N[C@@H](CC(N)=O)C(=O)N[C@@H](CO)C(=O)N[C@@H](Cc2ccccc2)C(=O)N[C@@H](CCCNC(=N)N)C(=O)N[C@@H](Cc2ccc(O)cc2)C(=O)O)NC(=O)CNC(=O)[C@H](CC(C)C)NC(=O)CNC(=O)[C@H](CO)NC(=O)[C@H](CCC(N)=O)NC(=O)[C@H](C)NC(=O)CNC1=O` [atrial natriuretic peptide]: in experiment [1], the “inhibition of binding of the antiserum to labeled peptide” value (shortened to “inhibition of binding of the antiserum”) is listed as “none of these peptides showed inhibition”.
As for `NC(=O)CC[C@@H]1NC(=O)[C@H](Cc2ccccc2)NC(=O)[C@H](Cc2ccc(O)cc2)NC(=O)[C@@H](N)CSSC[C@@H](C(=O)N2CCC[C@H]2C(=O)N[C@@H](CCCN=C(N)N)C(=O)NCC(N)=O)NC(=O)[C@H](CC(N)=O)NC1=O` [vasopressin], in experiment [1], the “inhibition of binding of the antiserum” value is given as “none of these peptides showed inhibition”.
As for ESPGPERVW, the “amount of the peptide that yields 50% inhibition of the maximum binding level (B/B0 50%)” value in experiment [1] (antiserum diluted 9×10^5 folds, [125I]-labeled peptide approximately 9 fmol) is 9.0 fmol.
Regarding Leu-enkephalin, in experiment [1], the “inhibition of binding of the antiserum” value is on record as “none of these peptides showed inhibition”.
On to “Met-enkephalin-Arg-Gly-Leu (YGGFMRGL) [non-VGF peptide]”, for which the “inhibition of binding of the antiserum” value in experiment [1] was “none of these peptides showed inhibition”.
Consider PAMP-20, for which the “inhibition of binding of the antiserum” value in experiment [1] is “none of these peptides showed inhibition”.
Take “Peptide 2: amino acid sequence at position 195 to 206 in human VGF (VNLESPGPERVW; synthetic Peptide 2, VGF-related peptide, human VGF positions 195-206)”: in experiment [2] (1 μmol/L peptide), the “increase of intracellular calcium concentration in hypothalamic cells (RLU per second)” value is on record as “increase of intracellular calcium concentration”. Further, the “luminescence (intracellular calcium ion increase) in hypothalamus” value in experiment [2] is given as “luminescence was observed”. For the same compound, the “luminescence (intracellular calcium ion increase) in medulla oblongata” value in experiment [3] is given as “luminescence was observed”. For the same compound, the “increase of intracellular calcium concentration in cardiac cells (RLU per second)” value in experiment [4] (setting [9]) is recorded as “increase of intracellular calcium concentration”. Also, the “luminescence (intracellular calcium ion increase) in heart” value in experiment [4] (setting [10]) is given as “luminescence was observed”. In experiment [5] (1 μmol/L peptide), the “increase of intracellular calcium concentration in pituitary cells (RLU per second)” value is “increase of intracellular calcium concentration”. The “luminescence (intracellular calcium ion increase) in pituitary gland” value in experiment [5] was “luminescence was observed”.
Consider “Peptide 3: amino acid sequence at position 485 to 495 in human VGF (NAPPEPVPPPR; synthetic Peptide 3, VGF-related peptide, human VGF positions 485-495)”, for which the “increase of intracellular calcium concentration in hypothalamic cells (RLU per second)” value in experiment [2] (1 μmol/L peptide) was “increase of intracellular calcium concentration”. The “luminescence (intracellular calcium ion increase) in hypothalamus” value in experiment [2] is “luminescence was observed”. Moreover, the “luminescence (intracellular calcium ion increase) in thymus” value in experiment [6] was “luminescence was observed”. Also, the “luminescence (intracellular calcium ion increase) in medulla oblongata” value in experiment [3] was “luminescence was observed”. In addition, the “increase of intracellular calcium concentration in kidney cells (RLU per second)” value in experiment [7] (setting [9]) is “increase of intracellular calcium concentration”. Moreover, the “luminescence (intracellular calcium ion increase) in kidney” value in experiment [7] (setting [10]) is recorded as “luminescence was observed”. Moreover, in experiment [5] (5 μmol/L peptide), the “increase of intracellular calcium concentration in pituitary cells (RLU per second)” value was “increase of intracellular calcium concentration”. Also, the “luminescence (intracellular calcium ion increase) in pituitary gland” value in experiment [5] is given as “luminescence was observed”.
Regarding “Peptide 9: amino acid sequence at position 554 to 577 in human VGF (TLQPPSALRRRHYHHALPPSRHYP; synthetic Peptide 9, VGF-related peptide, human VGF positions 554-577)”, the “increase of intracellular calcium concentration in hypothalamic cells (RLU per second)” value in experiment [2] (5 μmol/L peptide) is reported as “increase of intracellular calcium concentration”. Also, the “luminescence (intracellular calcium ion increase) in hypothalamus” value in experiment [2] was “luminescence was observed”. Besides, the “increase of intracellular calcium concentration in pituitary cells (RLU per second)” value in experiment [5] (5 μmol/L peptide) is “increase of intracellular calcium concentration”. The “luminescence (intracellular calcium ion increase) in pituitary gland” value in experiment [5] is listed as “luminescence was observed”.
In the case of adrenomedullin, in experiment [1], the “inhibition of binding of the antiserum” value is listed as “none of these peptides showed inhibition”.
In the case of calcitonin, the “inhibition of binding of the antiserum” value in experiment [1] is “none of these peptides showed inhibition”.
Consider calcitonin receptor-stimulating peptide, for which the “inhibition of binding of the antiserum” value in experiment [1] is on record as “none of these peptides showed inhibition”.
Take corticotropin-releasing factor: the “inhibition of binding of the antiserum” value in experiment [1] is listed as “none of these peptides showed inhibition”.
glucagon: the “inhibition of binding of the antiserum” value in experiment [1] is reported as “none of these peptides showed inhibition”.
melanin-concentrating hormone: the “inhibition of binding of the antiserum” value in experiment [1] is recorded as “none of these peptides showed inhibition”.
In the case of melanocyte-stimulating hormone, in experiment [1], the “inhibition of binding of the antiserum” value is listed as “none of these peptides showed inhibition”.
For neuromedin U-8, the “inhibition of binding of the antiserum” value in experiment [1] is “none of these peptides showed inhibition”.
Same read-out and setting: under neuropeptide Y stands “none of these peptides showed inhibition”; under “peptide HI: non-VGF peptide (HADGVFTSDYSRLLGQISAKKYLESLI; ends and bridges not checked; UniProt P01283 81-107, looked up)”, “none of these peptides showed inhibition”.
Turning to “rat VGF (577-617): known partial peptide, positions 577-617 of rat VGF (HHPDLEAQARRAQEEADAEERRLQEQEELENYIEHVLLHRP; UniProt P20156 577-617, looked up, fragment)”, in experiment [8], the erection inducing activity entry is “showed an erection inducing activity”.
For “rat VGF (588-617): known partial peptide, positions 588-617 of rat VGF (AQEEADAEERRLQEQEELENYIEHVLLHRP; UniProt P20156 588-617, looked up, fragment)”, the erection inducing activity result in experiment [8] is listed as “showed an erection inducing activity”.
In the case of “rat VGF (599-617): known partial peptide, positions 599-617 of rat VGF (LQEQEELENYIEHVLLHRP; UniProt P20156 599-617, looked up, fragment)”, in experiment [8], the erection inducing activity entry is given as “showed an erection inducing activity”.
Turning to secretin, the “inhibition of binding of the antiserum” value in experiment [1] is given as “none of these peptides showed inhibition”.
